{"source": "paper PMC10160982", "about": "(Proceedings of the National Academy of Sciences of the …, 2023)", "biological_target": "SARS-CoV-2 M^pro (Severe acute respiratory syndrome coronavirus 2, UniProt P0DTD1)", "assay": "FRET-based SARS-CoV-2 Mpro inhibition activity assay", "assay_type": "biochemical", "conditions": "SARS-CoV-2 M^pro inhibition IC50, FRET-based protease assay"}
{"smiles": "COc1cc(O)ccc1/C=C/C(=O)c1ccc(O)cc1", "note": "[Echinatin]", "values": [{"measurement": "IC50", "value": 22.5, "unit": "µM"}]}
